In patent EP0433679A2, “Pharmaceutical compositions for inhibition of maillard's reaction” (Senju Pharmaceutical Co., Ltd., priority 1989, dated 1991):

Molecular target: bovine serum albumine (Bos taurus, UniProt P02769)
Experiment: Inhibition of furosine formation (non-enzymatic glycosylation of BSA by glucose, furosine determined by HPLC)
Details: 672 h, pH 7.3, read-out: Inhibition rate (%)
Method: The sample solutions were kept for 4 weeks at 37 °C, and the amount of furosine which was formed by non-enzymatic glycosylation was determined by HPLC according to the method of Schleicher et al. (J. Clin. Biochem., 19:81-87 (1981).] Thus, the sample solutions after reaction were dialyzed, and aliquots of 1 ml were lyophylized and then hydrolyzed by the addition of 1 ml of 6 N hydrochloric acid followed by heating at 100 °C for 20 hours. After removal of hydrochloric acid by evaporation, 1 ml of water was added to each sample, and the samples were subjected to filtration using a filter with the pore size of 0.45 µm. The filtrate was used as the sample for HPLC. ODS-120T (Toso) was used for the column and 7 mM phosphoric acid solution was used as the eluant. The absorbance peak whose ratio of peak area at 280 mm/254 mm was 3.9/1 was regarded as the peak corresponding to furosine.
Upon the area of the peak of furosine of each sample, the inhibition rate of furosine formation by the test compound was calculated as follows. Inhibition rate (%)=(c-d)+(c-n)×100 c; peak area of furosine of the control sample d; peak area of furosine of the test sample n; peak area of furosine of the normal sample

Chain of bovine serum albumine (P02769 25-607): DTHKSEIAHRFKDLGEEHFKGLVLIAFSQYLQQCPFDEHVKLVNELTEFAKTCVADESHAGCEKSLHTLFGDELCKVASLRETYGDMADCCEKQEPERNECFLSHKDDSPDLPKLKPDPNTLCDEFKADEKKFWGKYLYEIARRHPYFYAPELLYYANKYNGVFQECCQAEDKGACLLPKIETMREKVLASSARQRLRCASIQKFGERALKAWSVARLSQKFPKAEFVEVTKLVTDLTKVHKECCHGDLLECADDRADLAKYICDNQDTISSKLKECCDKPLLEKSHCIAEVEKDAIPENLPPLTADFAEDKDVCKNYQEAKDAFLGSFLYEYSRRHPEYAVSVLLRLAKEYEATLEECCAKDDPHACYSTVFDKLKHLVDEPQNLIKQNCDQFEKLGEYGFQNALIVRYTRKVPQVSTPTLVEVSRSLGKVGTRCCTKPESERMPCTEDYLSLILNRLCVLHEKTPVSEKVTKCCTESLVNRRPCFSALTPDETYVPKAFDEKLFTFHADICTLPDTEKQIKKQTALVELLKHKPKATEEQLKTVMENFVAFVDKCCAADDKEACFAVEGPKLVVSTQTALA

Going from `O=C(O)c1cc(O)c2c(O)ccc(O)c2n1` [T-5] to `Oc1ccc(O)c2c(O)cc(C(F)(F)F)nc12` [T-2], the inhibition at 5000 µM rises from 78.9% to 79.9%.

First: O=C(O)c1cnc2c(c1O)C(=O)C=CC2=O [T-7]
Second: CCOC(=O)c1cnc2c(c1O)C(=O)C=CC2=O [T-8]
The inhibition at 5000 µM of the first is lower: 79.9% for the first, 96.9% for the second.

First: COC(=O)c1cc(O)c2c(n1)C(=O)C=CC2=O [T-4]
Second: O=C(O)c1cc(O)c2c(n1)C(=O)C=CC2=O [T-6]
The inhibition at 5000 µM of the first is higher: 92.5% for the first, 76% for the second.

First: N=C(N)NN [Aminoguanidine, aminoguanidine, reference compound]
Second: Cc1cc(O)c2c(n1)C(=O)C=CC2=O [T-9]
The inhibition at 5000 µM of the first is lower: 7.5% for the first, 99.5% for the second.

Going from `O=C(O)c1cc(O)c2c(n1)C(=O)C=C(O)C2=O` [T-1] to `O=C1C=CC(=O)c2c(O)cc(C(F)(F)F)nc21` [T-3], the inhibition at 5000 µM falls from 77.8% to 73.4%.

With `O=c1ccc2[n+]([O-])c3ccc(O)cc3oc-2c1` [T-10, resazurin] the inhibition at 5000 µM was 73.8%.
